7 compounds from PubChem BioAssay (NCI) can be followed below.

Molecules are shown by their SMILES.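 Test compounds were applied to cells in 96-well plates for 48 hours at 5 doses. TGI is the concentration that stops growth completely.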

Common to all, as to test: inhibition of tumour cell growth, NCI panel, 48 h
The test system of experiment [1] is XF 498 CNS.
The subject of experiment [2] is SNB-78 CNS.
Experiment [3] has as its system LXFL 529 NSCLC.
The subject of experiment [4] is DLD-1 colon.
Experiment [5] deals with HOP-92 NSCLC.
Experiment [6] relates to KM20L2 colon.
For experiment [7], the system named is HT29 colon.
For experiment [8], the system named is M19-MEL melanoma.
Experiment [9] concerns HOP-18 NSCLC.
Experiment [10] concerns CAKI-1 renal.
For experiment [11], the system named is UACC-62 melanoma.
The test system of experiment [12] is DMS 273 small cell lung.
Experiment [13] relates to SK-MEL-2 melanoma.
The test system of experiment [14] is RXF 393 renal.
The test system of experiment [15] is DMS 114 small cell lung.
Experiment [16] concerns U251 CNS.
The test system of experiment [17] is SK-MEL-28 melanoma.
Experiment [18] relates to A498 renal.

For the compound `CN(C)CCSC(=Nc1ccccc1)n1cccc1`, the TGI in experiment [1] was over 100 µM; in experiment [2], 76.9 µM; in [3] it was over 100 µM; in [4], over 100 µM; in experiment [5], 82.1 µM; in experiment [6], over 100 µM. For the same compound, the TGI in experiment [7], in experiment [8], in experiment [9], in experiment [10], in experiment [11] and in experiment [12] was over 100 µM in each case. Moreover, the TGI is over 100 µM in experiment [13]; over 100 µM in experiment [14]; 80.8 µM in experiment [15]; over 100 µM in experiment [16]; over 100 µM in [17].

For the compound `COc1cc(CO)cc2c1[nH]c1ccccc12`, the TGI in experiment [1], in experiment [2], in [3], in [4], in [5] and in experiment [6] was over 25 µM each time. Besides, the TGI in [7], in experiment [8], in experiment [9], in experiment [11], in experiment [12] and in experiment [13] was over 25 µM in each case. For the same compound, the TGI in experiment [14], in experiment [15], in experiment [16] and in experiment [17] was over 25 µM throughout.

Regarding `CC(=O)OCc1ncccc1C(OC(C)=O)OC(C)=O`, the TGI in experiment [1], in experiment [2], in experiment [3], in [4], in experiment [5] and in experiment [6] was over 100 µM throughout. Also, the TGI in experiment [18], in [7], in [8], in experiment [9], in [10] and in experiment [11] was over 100 µM in each case. Further, the TGI in experiment [12], in [13], in experiment [14], in [15], in [16] and in experiment [17] was over 100 µM in each case.

Turning to `COc1ccc([C@H]2[C@@H]3CCc4ccccc4C3=NN2C(N)=S)cc1OC`, the TGI in experiment [1], in [2], in experiment [3], in experiment [4], in [5] and in experiment [6] was over 100 µM throughout. The TGI in [18], in experiment [7], in experiment [8], in experiment [9], in experiment [11] and in [13] was over 100 µM each time. The TGI in experiment [14] was over 100 µM; in experiment [15], 93.7 µM; in experiment [16] it was over 100 µM; in experiment [17] it was over 100 µM.

On to `NC(=S)N/N=C(/CCN1CCCC1)CC(C1=C(O)C2=CCCCC2OC1=O)c1ccccc1` (stereo not drawn), for which the TGI in [1], in experiment [2], in experiment [3], in [4], in [5] and in [6] was over 100 µM each time. Further, the TGI in experiment [18], in experiment [7], in [8], in [9], in experiment [10] and in experiment [11] was over 100 µM in each case. Besides, the TGI in [13], in experiment [14] and in [16] was over 100 µM throughout.

Regarding `C[C@@H]1C[C@@H]2C(=O)N(c3ccccc3)C(=O)[C@@H]2c2[nH]c3ccc(Br)cc3c21`, the TGI in experiment [1] is 81.3 µM; in experiment [2], 71 µM; in [3], over 100 µM; in [4] it was over 100 µM; in experiment [5] it was 62.2 µM; in experiment [6], over 100 µM. Besides, the TGI in [18] was over 100 µM; in experiment [8] it was over 100 µM; in [9], 62.4 µM; in experiment [10] it was over 100 µM; in experiment [11], over 100 µM; in [12] it was over 100 µM. In addition, the TGI in experiment [13] is over 100 µM; in experiment [14], 78.5 µM; in experiment [15], over 100 µM; in experiment [16], 38.8 µM; in [17], over 100 µM.

Turning to `COC(=O)[C@H]1C2CC[C@@H]3C45C[C@@H](c6ccoc6)O[C@@H]4O[C@@H](O2)C31CCC5C` (stereo partly drawn), the TGI in [1], in experiment [2], in experiment [3], in experiment [4], in experiment [5] and in experiment [6] was over 100 µM in each case. In addition, the TGI in experiment [18], in [7], in experiment [9], in [10], in experiment [11] and in experiment [12] was over 100 µM in each case. Besides, the TGI in experiment [13] and in experiment [16] was over 100 µM each time.
